Calls of active or inactive are those of the source. The calls are words filed in the database; no cut-off is given here.
Columns and labels:
Human adenovirus 5 = test: Compound was tested for antiviral activity against adenovirus type 5; little or no activity; type: functional, organism-based
L cells = test: Cytotoxic activity against Detroit 98 or mouse L cell culture at 10E-4 M concentration; No significant activity; type: functional, cell-based; settings: L929
Human alphaherpesvirus 1 = test: Compound was tested for plaque-inhibition against HSV-1 in cell culture at 50 ug per disk; Inactive; type: functional, organism-based
[1] = system: Thymidine kinase (Human alphaherpesvirus 1); test: Compound was tested for affinity against HSV-1 thymidine kinase; Low activity
Vaccinia virus = test: Compound was tested for antiviral activity against vaccinia virus; little or no activity; type: functional, organism-based; settings: Orthopoxvirus vaccinia
[2] = system: Thymidine kinase (Human alphaherpesvirus 1); test: Compound was tested for affinity against HSV-1 Thymidine kinase; Low activity

Compound: Cc1cn(COCCN)c(=O)[nH]c1=O
- Activity (Human adenovirus 5): Little or no activity
- Cytotoxicity (L cells): inactive
- Activity (Human alphaherpesvirus 1): inactive
- Activity [1]: Low activity
- Activity (Vaccinia virus): Little or no activity

Compound: NCCOCn1cc(Cl)c(=O)[nH]c1=O
- Activity [2]: Low activity
- Activity (Human adenovirus 5): Little or no activity
- Cytotoxicity (L cells): inactive
- Activity (Human alphaherpesvirus 1): inactive
- Activity (Vaccinia virus): Little or no activity

Compound: NCCOCn1cc(I)c(=O)[nH]c1=O
- Activity [2]: Low activity
- Activity (Human adenovirus 5): Little or no activity
- Cytotoxicity (L cells): inactive
- Activity (Human alphaherpesvirus 1): inactive
- Activity (Vaccinia virus): Little or no activity

Compound: NCCOCn1ccc(=O)[nH]c1=O
- Activity (Human adenovirus 5): Little or no activity
- Cytotoxicity (L cells): inactive
- Activity (Human alphaherpesvirus 1): inactive
- Activity [1]: Low activity
- Activity (Vaccinia virus): Little or no activity

Compound: NCCOCn1cc(Br)c(=O)[nH]c1=O
- Activity (Human adenovirus 5): Little or no activity
- Cytotoxicity (L cells): inactive
- Activity (Human alphaherpesvirus 1): inactive
- Activity [1]: Low activity
- Activity (Vaccinia virus): Little or no activity

Reference: ChEMBL document CHEMBL1121821, “Pyrimidine acyclic nucleosides. 5-Substituted 1-[(2-aminoethoxy)methyl]uracils as candidate antivirals” (J Med Chem, 1981)
